“And” between values parts separate entries of the source, which are not always exact repeats. Identical values can stand only once. “Also recorded” adds a separate entry of the source. Like-named read-outs stand apart in the source and are kept apart here. Square brackets hold non-standard residues; d marks the D form. Peptide text beside a SMILES is read from it. * marks the point of attachment. Fmoc = O=C(OCC1c2ccccc2-c2ccccc21)*; Cha = N[C@@H](CC1CCCCC1)C(=O)O; AMC = Cc1cc(=O)oc2cc(N*)ccc12
How the values were obtained:
[1] = tested on: time spent active in forced swim test; settings: dose that suppresses status epilepticus; Bartfai et al. 2004; cited from earlier work
seizures = settings: Saar et al. 2002; cited from earlier work
[2] = tested on: locomotor activity (line crossing); assay: Open field test; assay type: in vivo, rat; settings: for locomotor activity in the open field (words): desipramine 15 mg/kg
Protocol: Drug treatments. […] Louis, Mo.) was dissolved in saline and administered i.p. at a dose of 10 mg/kg daily for 14 days for biochemical studies. Separate groups of rats received daily i.p. injections of FLX or saline vehicle for 14 days for testing in the forced swim task. On day 14, rats were administered FLX or saline i.p. at 45 minutes prior to the forced swim test and […] (Bachem, King of Prussia, Pa.) or […]. at 15 minutes prior to the forced swim test (see methods below). Single i.c.v. microinjections of M40 (8 nmol/2 μl ACSF) or ACSF (2 μl) were performed with a 10 μl Hamilton syringe connected via Becton Dickinson polyethylene tubing (PE20) to a 1.5 cm injector (Plastics One) fabricated from 31 gauge hypodermic tubing. The animal was allowed to freely explore a small cage during the infusion of 2 μl over 1.5 minutes, with each 1 μl separated by ten seconds, and an additional sixty seconds before the injector was withdrawn from the guide cannula. The treatments consisted of equal numbers of rats receiving one of the following combinations of treatments: saline+ACSF, saline+M40, FLX+ACSF, or FLX+[…]. […] One week after the forced swim test, rats were randomly assigned to treatment groups. […] Forty five minutes after injection, rats were subjected to the open field test. Open field test. One week after the forced swim test, rats were randomly assigned to treatment groups. […] The apparatus consisted of a square arena (100 by 100 cm), with a 40 cm high opaque white wall. The floor was marked into 9 equal segments and fluorescent light provided diffuse overhead illumination. Locomotor activity over 5 minutes was recorded on videotape. Tapes were later scored blind to the experimental condition of the animals. Line crossing behavior (defined as at least three paws in a square) was tallied and compared between experimental conditions.

[3] = tested on: time spent active in forced swim test; assay: Forced swim test; assay type: in vivo, rat
Protocol: Rats underwent aseptic stereotaxic surgery under ketamine (100 mg/kg, i.p.) xylazine (10 mg/kg, i.p.) anesthesia. A guide cannula 1.4 cm in length, of 26 gauge stainless steel hypodermic tubing (Plastics One, St. Louis, Mo.) was implanted into the right lateral ventricle at coordinates 0.5 mm posterior, 1.0 mm lateral to bregma, and 3.5 mm ventral to the surface of the skull. A 31 gauge stylet was secured to the guide cannula following the surgery. After surgery, rats were given at least 8 days recovery before the start of behavioral testing.
Fluoxetine (FLX, Sigma, St. Louis, Mo.) was dissolved in saline and administered i.p. at a dose of 10 mg/kg daily for 14 days for biochemical studies. Separate groups of rats received daily i.p. injections of FLX or saline vehicle for 14 days for testing in the forced swim task. On day 14, rats were administered FLX or saline i.p. at 45 minutes prior to the forced swim test and M40 (Bachem, King of Prussia, Pa.) or ACSF i.c.v. at 15 minutes prior to the forced swim test (see methods below). Single i.c.v. microinjections of M40 (8 nmol/2 μl ACSF) or ACSF (2 μl) were performed with a 10 μl Hamilton syringe connected via Becton Dickinson polyethylene tubing (PE20) to a 1.5 cm injector (Plastics One) fabricated from 31 gauge hypodermic tubing. The animal was allowed to freely explore a small cage during the infusion of 2 μl over 1.5 minutes, with each 1 μl separated by ten seconds, and an additional sixty seconds before the injector was withdrawn from the guide cannula. The treatments consisted of equal numbers of rats receiving one of the following combinations of treatments: saline+ACSF, saline+M40, FLX+ACSF, or FLX+M40. Additional treatment groups (n=10 per group) were examined in a separate forced swim test 45 minutes after i.p. injection of one of the following: 50% DMSO (w/v), galnon (Vulpes, Estonia; dissolved in 50% DMSO), or desipramine (Sigma, St Louis, Mo., 15 mg/kg in 50% DMSO).
Forced swim test. Rats were placed singly in a cylindrical glass container (48 cm height, 21 cm diameter) with tap water (25° C.) to a depth of 27 cm and tested for 10 minutes. Water was changed and the cylinder thoroughly rinsed after each test. Tests were recorded on videotape and later scored by an experienced observer blind to the experimental conditions of the rats.
Data for forced swim test studies utilizing galnon and desipramine were subject to a one factor analysis of variance (ANOVA), with drug treatment as the between subjects factor. For the M40 FLX study, data were subject to a two factor between subjects design, with chronic drug treatment (FLX vs vehicle) and i.c.v. drug (M40 vs ACSF) as the main factors. Significant main effects were followed up with Fisher's LSD posthoc test to determine specific group differences.

withdrawal signs = settings: Zachariou et al. 2003, cited from earlier work
rat GalR2 = molecular target: T1, rat GalR2 (Rattus norvegicus, UniProt O08726); assay: Displacement of [125I]galanin binding from membranes of GalR2-expressing cells; settings: data not shown
T1 construct: expressed in transfected cells; host or cells: CHO cells, stably transfected
T1 sequence (O08726 1-372): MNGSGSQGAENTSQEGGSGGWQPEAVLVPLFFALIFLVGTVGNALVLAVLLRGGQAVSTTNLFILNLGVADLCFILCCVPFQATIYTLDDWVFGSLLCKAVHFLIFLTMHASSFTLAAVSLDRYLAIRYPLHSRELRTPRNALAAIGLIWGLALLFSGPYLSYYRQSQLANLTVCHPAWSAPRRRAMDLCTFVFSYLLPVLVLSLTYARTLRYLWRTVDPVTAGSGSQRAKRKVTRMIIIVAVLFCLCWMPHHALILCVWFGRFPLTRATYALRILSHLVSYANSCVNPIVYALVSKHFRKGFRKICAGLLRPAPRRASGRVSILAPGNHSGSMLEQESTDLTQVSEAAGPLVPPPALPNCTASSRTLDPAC
Source text: Cell lines. Stably transfected Chinese Hamster Ovary (CHO) cells expressing rat GalR2, and Bowes' melanoma cells that express human GalR1, were cultivated as described earlier (Wang, S., et al. Biochemistry 1998, 37, 6711-7; and Heuillet, E., et al. Eur. J. Pharmacol. 1994, 269, 139-47).
Membrane preparation and binding assay. DRN and LC were dissected from a total of 16 rats per group and samples from 4 animals were pooled. Rat brain synaptic membranes (Lu, X., et al. Neurosci. Lett. 2000, 286, 149-53) and cells were prepared as previously described (Heuillet, E., et al. Eur. J. Pharmacol. 1994, 269, 139 47). Equilibrium binding of ^125I, galanin (2200 Ci/mmol, PerkinElmer Life Science, Boston, Mass.) to hippocampal membrane preparations was performed in 150 μL binding buffer [50 mM Tris Cl (pH 7.4), 5 mM MgCl2, 0.05 % (w/v) bovine serum albumin, supplemented with protease inhibitors]. Incubations were at room temperature for 45 minutes and terminated by rapid filtration through glass fiber filters (Packard, Meriden, Conn.). After three washes with cold PBS (pH 7.4) containing 0.01 % (v/v) Triton X 100, the filter was counted with Cobra II auto Gamma counting systems (Parkard Bioscience, Downer Grove, Ill.).

GalR2 sites = assay: GalR2 binding sites in brain tissue after treatment, saturating [125I]galanin binding with galanin (2-11) as competitor; assay type: in vivo, rat; settings: FLX 10 mg/kg i.p. 14 days
Protocol: (§1) Tissue dissections. Tissues used for RNA extraction or binding study were rapidly dissected after sacrifice and immediately frozen on dry ice. All dissections were performed by an experienced neuroanatomist with a rat brain slicer and for small structures, like LC and DRN, the punching method was used to assure reproducible dissection.
(§2) Membrane preparation and binding assay. DRN and LC were dissected from a total of 16 rats per group and samples from 4 animals were pooled. […] Incubations were at room temperature for 45 minutes and terminated by rapid filtration through glass fiber filters (Packard, Meriden, Conn.). After three washes with cold PBS (pH 7.4) containing 0.01 % (v/v) Triton X 100, the filter was counted with Cobra II auto Gamma counting systems (Parkard Bioscience, Downer Grove, Ill.).
(§3) Neurol. […] Anxiety 2000, 12, 170-7; Nolen, W. A., et al. Int. Clin. Psychopharmacol. […] Neurol. […] As GalR3 is not abundant in the regions tested, GalR1 sites were estimated by subtracting GalR2 sites from the sum of GalR1 and GalR2 receptor sites. […] Neurol.
(§4) Drug treatments. Fluoxetine (FLX, Sigma, St. Louis, Mo.) was dissolved in saline and administered i.p. at a dose of 10 mg/kg daily for 14 days for biochemical studies. Separate groups of rats received daily i.p. injections of FLX or saline vehicle for 14 days for testing in the forced swim task. […]

galanin mRNA = assay: Quantitative real time PCR of galanin mRNA in rat brain regions after treatment; assay type: in vivo
Protocol: as §1
Quantitative real time PCR. Brain tissues obtained from 12 rats (DRN, LC, paraventricular nucleus of hypothalamus) or 6 rats (prefrontal cortex, amygadala, hippocampus) were pooled and total RNA was prepared with Trizol reagent (Invitrogen, Carlsbad, Calif.) following manufacturer's instructions. For galanin mRNA quantification in DRN and LC after FLX treatment, the experiment was repeated with 3 independent pools of 4 rats per treatment per brain region. Aliquots of total RNA (2 μg) and oligo(dT) primers were then reverse transcribed with ThermoScript RT (Invitrogen) at 51° C. for 60 minutes. Quantitative PCR was performed using a Roche LightCycler and LightCycler Fast Start DNA Master SYBR Green I mix (Roche Applied Science, Indianapolis, Ind.). […] Real time PCR assays included an initial 10 minutes, 94° C. step to activate Taq polymerase, followed by 35 cycles of denaturation 94° C., 10 seconds, annealing 58° C., 10 seconds, and extension 72° C., 25 seconds. The results were expressed in arbitrary units normalized by the expression levels of the reference gene, β-actin.
Drug treatments. Fluoxetine (FLX, Sigma, St. Louis, Mo.) was dissolved in saline and administered i.p. at a dose of 10 mg/kg daily for 14 days for biochemical studies. Separate groups of rats received daily i.p. injections of FLX or saline vehicle for 14 days for testing in the forced swim task. On day 14, rats were administered FLX or saline i.p. at 45 minutes prior to the forced swim test and M40 (Bachem, King of Prussia, Pa.) or ACSF i.c.v. at 15 minutes prior to the forced swim test (see methods below). Single i.c.v. microinjections of M40 (8 nmol/2 μl ACSF) or ACSF (2 μl) were performed with a 10 μl Hamilton syringe connected via Becton Dickinson polyethylene tubing (PE20) to a 1.5 cm injector (Plastics One) fabricated from 31 gauge hypodermic tubing. The animal was allowed to freely explore a small cage during the infusion of 2 μl over 1.5 minutes, with each 1 μl separated by ten seconds, and an additional sixty seconds before the injector was withdrawn from the guide cannula. The treatments consisted of equal numbers of rats receiving one of the following combinations of treatments: saline+ACSF, saline+M40, FLX+ACSF, or FLX+M40. […] One week after the forced swim test, rats were randomly assigned to treatment groups. Rats were treated with vehicle, galnon or desipramine. Forty five minutes after injection, rats were subjected to the open field test.

GalR1 sites = assay: GalR1 binding sites in brain tissue after treatment, total galanin-binding sites minus GalR2 sites; assay type: in vivo; settings: rat DRN, FLX 10 mg/kg i.p. 14 days
Protocol: as §1, §2, §3, §4

COC(=O)[C@H](CCCCN)NC(=O)[C@]1(C)NC(=O)c2nc(oc2C)[C@](C)(C(=O)NC2c3ccccc3-c3ccccc32)NC(=O)c2nc(oc2C)[C@](C)(C(=O)NCC2CCCCC2)NC(=O)c2nc1oc2C [galmic]
effect in the forced swim test [1]: antidepressant like effect

Cc1cc(=O)oc2cc(NC(=O)[C@H](CCCCN)NC(=O)[C@H](CC3CCCCC3)NC(=O)OCC3c4ccccc4-c4ccccc43)ccc12 [galnon] (Fmoc-[Cha]-Lys-{AMC})
latency of phenyleneterazol induced seizures (seizures): increase the latency | activity in the open field ([2]; galnon 20 mg/kg, p<0.01): significantly reduced | activity in the open field ([2]; galnon 40 mg/kg, p<0.05): significantly reduced | activity in the open field ([2]; higher doses of galnon, P<0.05 vs control): significantly reduced activity | increase in activity in the forced swim test ([3]; galnon 20 mg/kg i.p., p<0.05): significant | increase in activity in the forced swim test ([3]; galnon 40 mg/kg i.p., p<0.01): significant | activity in the forced swim test ([3]; galnon 1-40 mg/kg i.p., 45 minutes after injection): significant increase; also recorded: dose dependent increase | effect on withdrawal signs (words) (withdrawal signs): attenuate several withdrawal signs | effect on withdrawal signs (words) (withdrawal signs; listed as Galnon): inhibit signs of opiate withdrawal | Ki (rat GalR2): 34.1 µM

CNCCC(Oc1ccc(C(F)(F)F)cc1)c1ccccc1 (stereo not shown) [FLX, fluoxetine]
increase in time spent active in the forced swim test vs saline-pretreated rats ([3]; FLX 10 mg/kg i.p. 14 days, 10 minute test, P<0.05): ~46% | time spent active in the forced swim test ([3]; FLX 10 mg/kg i.p. 14 days, FLX+ACSF vs Saline+ACSF, p<0.05): significant increase | increase in number of GalR2 binding sites in DRN (GalR2 sites; rat DRN): 50% and 58% | effect on GalR2 sites in LC (GalR2 sites; rat LC): not in LC | increase in galanin mRNA levels in DRN (galanin mRNA; rat DRN, FLX 10 mg/kg i.p. 14 days): 100% | increase in galanin mRNA levels in DRN (galanin mRNA; rat DRN, FLX 10 mg/kg i.p. 14 days, pooled samples): 2 fold | effect on galanin mRNA in DRN (galanin mRNA; rat DRN, FLX 14 days, three independent pools, P<0.05 vs Ctrl): increased galanin mRNA | increase in galanin mRNA levels in LC (galanin mRNA; rat LC, FLX 10 mg/kg i.p. 14 days, pooled samples): 2.2 fold | effect on galanin mRNA in LC (galanin mRNA; rat LC, FLX 14 days): increased galanin mRNA | effect on number of GalR1 binding sites in DRN (GalR1 sites): without changes; also recorded: unaltered

CNCCCN1c2ccccc2CCc2ccccc21 [desipramine]
locomotor activity in the open field (words) ([2]; p<0.01): significantly reduced activity | locomotor activity in the open field (words) ([2]; p<0.01, listed as Desipramine): significant reduction | activity in the forced swim test ([3]; desipramine 15 mg/kg i.p., positive control): significantly increased activity | increase in activity in the forced swim test ([3]; desipramine 15 mg/kg i.p., positive control, p<0.001): 125%

From patent US20060177853A1, “Antidepressant drug target” (The Scripps Research Institute, priority 2005, published 2006)
